{
  "source": "ChEMBL document CHEMBL5465560",
  "about": "“Selectivity Literature for EUbOPEN Chemogenomic Library” (2024)",
  "key": {"[1]": {"target": "Casein kinase II subunit alpha' (Homo sapiens) (UniProt P19784)", "sequence (P19784 whole entry, looked up)": "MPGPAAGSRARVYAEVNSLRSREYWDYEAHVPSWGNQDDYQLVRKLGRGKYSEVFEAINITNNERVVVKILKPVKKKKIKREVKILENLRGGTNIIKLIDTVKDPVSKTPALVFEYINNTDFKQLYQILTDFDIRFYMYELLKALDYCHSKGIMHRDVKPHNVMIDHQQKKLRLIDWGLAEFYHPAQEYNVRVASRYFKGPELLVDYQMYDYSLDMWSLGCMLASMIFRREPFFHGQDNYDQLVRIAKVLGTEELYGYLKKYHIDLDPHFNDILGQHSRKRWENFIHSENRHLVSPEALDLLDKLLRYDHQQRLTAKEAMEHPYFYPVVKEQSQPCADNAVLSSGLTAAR", "test": "Selectivity interaction (KinomeScan (DiscoverX)) EUB0000229b CSNK2A2", "details": "at 10 µM"}, "[2]": {"target": "T1, Serine/threonine-protein kinase PLK4 (Homo sapiens) (UniProt O00444)", "T1 sequence (whole entry)": "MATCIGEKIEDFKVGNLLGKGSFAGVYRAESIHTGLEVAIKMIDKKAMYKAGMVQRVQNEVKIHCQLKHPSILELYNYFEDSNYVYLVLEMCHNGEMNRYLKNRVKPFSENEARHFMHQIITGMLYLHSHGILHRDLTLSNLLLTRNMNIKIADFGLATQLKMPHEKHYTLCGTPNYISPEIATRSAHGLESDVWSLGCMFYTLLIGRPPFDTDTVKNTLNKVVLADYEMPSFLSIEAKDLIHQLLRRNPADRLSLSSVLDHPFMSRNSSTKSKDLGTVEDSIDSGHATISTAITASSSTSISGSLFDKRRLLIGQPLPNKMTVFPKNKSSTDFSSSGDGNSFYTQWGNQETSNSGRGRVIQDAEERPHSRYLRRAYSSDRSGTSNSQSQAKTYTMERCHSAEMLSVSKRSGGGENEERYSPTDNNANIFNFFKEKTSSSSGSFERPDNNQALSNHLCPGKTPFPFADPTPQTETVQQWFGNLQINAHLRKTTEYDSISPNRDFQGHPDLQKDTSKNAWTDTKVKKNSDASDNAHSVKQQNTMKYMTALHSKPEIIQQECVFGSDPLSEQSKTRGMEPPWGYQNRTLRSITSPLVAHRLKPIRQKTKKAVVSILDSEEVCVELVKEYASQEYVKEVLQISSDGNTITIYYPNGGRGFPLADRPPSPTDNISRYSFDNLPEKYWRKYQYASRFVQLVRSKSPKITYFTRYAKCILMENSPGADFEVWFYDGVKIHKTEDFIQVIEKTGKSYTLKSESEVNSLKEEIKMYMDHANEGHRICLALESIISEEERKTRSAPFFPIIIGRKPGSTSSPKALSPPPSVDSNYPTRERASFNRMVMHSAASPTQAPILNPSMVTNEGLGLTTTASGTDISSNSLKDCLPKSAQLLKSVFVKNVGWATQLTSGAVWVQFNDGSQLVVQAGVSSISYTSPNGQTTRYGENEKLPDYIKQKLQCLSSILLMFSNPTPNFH", "test": "Selectivity interaction (KinomeScan (DiscoverX)) EUB0000092b PLK4", "details": "at 10 µM"}, "[3]": {"target": "Mitogen-activated protein kinase 14 (Homo sapiens, UniProt Q16539)", "sequence (Q16539 whole entry)": "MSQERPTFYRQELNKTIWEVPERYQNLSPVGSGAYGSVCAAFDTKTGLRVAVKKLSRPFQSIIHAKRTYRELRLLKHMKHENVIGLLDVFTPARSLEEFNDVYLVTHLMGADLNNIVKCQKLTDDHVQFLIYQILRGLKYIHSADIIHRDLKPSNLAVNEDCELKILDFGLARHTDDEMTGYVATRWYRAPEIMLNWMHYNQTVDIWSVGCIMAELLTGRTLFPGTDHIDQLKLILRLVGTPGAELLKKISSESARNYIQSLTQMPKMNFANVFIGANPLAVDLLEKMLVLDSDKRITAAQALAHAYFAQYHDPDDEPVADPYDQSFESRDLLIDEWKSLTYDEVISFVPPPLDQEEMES", "test": "Selectivity interaction (Radiometric kinase assay (using 10 uM ATP)) EUB0000601a MAPK14"}, "[4]": {"target": "T2, Cyclin-G-associated kinase (Homo sapiens) (UniProt O14976)", "T2 sequence (whole entry)": "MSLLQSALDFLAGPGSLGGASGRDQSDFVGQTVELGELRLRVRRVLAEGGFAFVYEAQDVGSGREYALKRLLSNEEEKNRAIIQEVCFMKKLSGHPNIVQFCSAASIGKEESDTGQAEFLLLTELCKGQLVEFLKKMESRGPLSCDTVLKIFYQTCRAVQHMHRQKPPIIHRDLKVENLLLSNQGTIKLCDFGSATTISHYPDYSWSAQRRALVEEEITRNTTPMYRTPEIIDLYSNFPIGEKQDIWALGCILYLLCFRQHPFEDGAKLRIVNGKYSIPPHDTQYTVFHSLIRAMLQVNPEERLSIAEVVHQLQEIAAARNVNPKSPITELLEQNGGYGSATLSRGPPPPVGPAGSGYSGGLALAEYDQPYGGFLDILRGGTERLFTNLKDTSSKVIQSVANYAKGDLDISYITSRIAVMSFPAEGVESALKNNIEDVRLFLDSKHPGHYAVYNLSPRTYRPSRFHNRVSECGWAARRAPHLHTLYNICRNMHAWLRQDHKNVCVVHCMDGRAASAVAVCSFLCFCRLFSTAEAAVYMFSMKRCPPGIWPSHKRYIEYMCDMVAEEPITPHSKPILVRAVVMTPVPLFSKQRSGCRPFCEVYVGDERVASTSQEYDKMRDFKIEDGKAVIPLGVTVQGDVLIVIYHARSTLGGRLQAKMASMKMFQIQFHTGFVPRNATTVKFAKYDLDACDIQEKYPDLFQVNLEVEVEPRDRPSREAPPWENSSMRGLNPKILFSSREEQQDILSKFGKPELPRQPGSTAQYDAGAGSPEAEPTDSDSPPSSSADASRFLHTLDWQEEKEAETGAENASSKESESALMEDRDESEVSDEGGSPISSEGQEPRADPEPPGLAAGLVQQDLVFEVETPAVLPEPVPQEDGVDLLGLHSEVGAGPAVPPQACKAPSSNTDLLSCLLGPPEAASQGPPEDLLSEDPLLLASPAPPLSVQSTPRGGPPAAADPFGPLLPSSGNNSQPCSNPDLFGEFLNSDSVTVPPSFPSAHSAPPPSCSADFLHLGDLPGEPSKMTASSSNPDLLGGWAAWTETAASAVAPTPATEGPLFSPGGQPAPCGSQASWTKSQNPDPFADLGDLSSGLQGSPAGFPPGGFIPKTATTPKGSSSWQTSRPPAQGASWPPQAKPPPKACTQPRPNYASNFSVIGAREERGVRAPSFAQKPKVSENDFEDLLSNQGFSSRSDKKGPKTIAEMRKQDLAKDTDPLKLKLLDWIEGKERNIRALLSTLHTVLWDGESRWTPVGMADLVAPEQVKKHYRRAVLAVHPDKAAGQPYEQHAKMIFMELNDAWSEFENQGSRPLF", "test": "Selectivity interaction (ActivX KiNativ screen (kinase selectivity in THP-1 cell lysates)) EUB0000639a GAK", "assay_type": "subcellular", "details": "lysate"}, "[5]": {"target": "Insulin-like growth factor 1 receptor (Homo sapiens, UniProt P08069)", "sequence (P08069 31-736 limits assumed)": "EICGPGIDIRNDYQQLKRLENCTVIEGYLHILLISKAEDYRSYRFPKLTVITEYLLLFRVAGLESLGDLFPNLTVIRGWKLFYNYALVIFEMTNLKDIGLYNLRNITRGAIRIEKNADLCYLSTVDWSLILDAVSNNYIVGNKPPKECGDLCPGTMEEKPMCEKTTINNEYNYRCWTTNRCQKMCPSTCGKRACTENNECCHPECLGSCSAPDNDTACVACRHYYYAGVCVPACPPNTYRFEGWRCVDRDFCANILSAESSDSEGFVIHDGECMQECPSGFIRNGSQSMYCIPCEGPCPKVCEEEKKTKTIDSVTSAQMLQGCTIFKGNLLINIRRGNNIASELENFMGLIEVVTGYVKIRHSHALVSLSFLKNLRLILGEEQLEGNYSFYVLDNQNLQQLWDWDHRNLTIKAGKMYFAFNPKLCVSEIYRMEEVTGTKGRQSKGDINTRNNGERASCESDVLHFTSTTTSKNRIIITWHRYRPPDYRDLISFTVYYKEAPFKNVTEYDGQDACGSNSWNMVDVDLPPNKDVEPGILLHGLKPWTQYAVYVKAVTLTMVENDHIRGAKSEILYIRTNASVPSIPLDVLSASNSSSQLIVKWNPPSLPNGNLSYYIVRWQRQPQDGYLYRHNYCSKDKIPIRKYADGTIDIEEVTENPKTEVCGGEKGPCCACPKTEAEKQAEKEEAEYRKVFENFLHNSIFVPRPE", "sequence (P08069 741-1367 limits assumed)": "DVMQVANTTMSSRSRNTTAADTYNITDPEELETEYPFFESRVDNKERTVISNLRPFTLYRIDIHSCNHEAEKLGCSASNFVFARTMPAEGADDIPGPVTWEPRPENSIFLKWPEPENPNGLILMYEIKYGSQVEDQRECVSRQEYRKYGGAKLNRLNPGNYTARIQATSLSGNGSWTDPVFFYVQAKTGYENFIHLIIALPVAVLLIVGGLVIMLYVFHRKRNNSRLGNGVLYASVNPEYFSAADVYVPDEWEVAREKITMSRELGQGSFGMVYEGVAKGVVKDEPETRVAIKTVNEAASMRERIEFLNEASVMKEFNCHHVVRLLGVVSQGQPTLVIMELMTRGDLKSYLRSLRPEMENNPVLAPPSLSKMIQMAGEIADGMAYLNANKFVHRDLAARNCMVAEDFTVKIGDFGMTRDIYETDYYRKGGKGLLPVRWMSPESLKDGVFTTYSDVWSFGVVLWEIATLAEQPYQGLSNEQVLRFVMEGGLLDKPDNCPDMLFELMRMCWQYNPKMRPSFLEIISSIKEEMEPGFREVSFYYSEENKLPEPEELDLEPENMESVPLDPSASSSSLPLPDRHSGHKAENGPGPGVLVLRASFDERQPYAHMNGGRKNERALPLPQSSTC", "test": "Selectivity interaction (SelectScreen profiling (Invitrogen)) EUB0000607a IGF1R", "details": "at 2 µM"}, "[6]": {"target": "Receptor tyrosine-protein kinase erbB-4 (Homo sapiens, UniProt Q15303)", "sequence (Q15303 whole entry)": "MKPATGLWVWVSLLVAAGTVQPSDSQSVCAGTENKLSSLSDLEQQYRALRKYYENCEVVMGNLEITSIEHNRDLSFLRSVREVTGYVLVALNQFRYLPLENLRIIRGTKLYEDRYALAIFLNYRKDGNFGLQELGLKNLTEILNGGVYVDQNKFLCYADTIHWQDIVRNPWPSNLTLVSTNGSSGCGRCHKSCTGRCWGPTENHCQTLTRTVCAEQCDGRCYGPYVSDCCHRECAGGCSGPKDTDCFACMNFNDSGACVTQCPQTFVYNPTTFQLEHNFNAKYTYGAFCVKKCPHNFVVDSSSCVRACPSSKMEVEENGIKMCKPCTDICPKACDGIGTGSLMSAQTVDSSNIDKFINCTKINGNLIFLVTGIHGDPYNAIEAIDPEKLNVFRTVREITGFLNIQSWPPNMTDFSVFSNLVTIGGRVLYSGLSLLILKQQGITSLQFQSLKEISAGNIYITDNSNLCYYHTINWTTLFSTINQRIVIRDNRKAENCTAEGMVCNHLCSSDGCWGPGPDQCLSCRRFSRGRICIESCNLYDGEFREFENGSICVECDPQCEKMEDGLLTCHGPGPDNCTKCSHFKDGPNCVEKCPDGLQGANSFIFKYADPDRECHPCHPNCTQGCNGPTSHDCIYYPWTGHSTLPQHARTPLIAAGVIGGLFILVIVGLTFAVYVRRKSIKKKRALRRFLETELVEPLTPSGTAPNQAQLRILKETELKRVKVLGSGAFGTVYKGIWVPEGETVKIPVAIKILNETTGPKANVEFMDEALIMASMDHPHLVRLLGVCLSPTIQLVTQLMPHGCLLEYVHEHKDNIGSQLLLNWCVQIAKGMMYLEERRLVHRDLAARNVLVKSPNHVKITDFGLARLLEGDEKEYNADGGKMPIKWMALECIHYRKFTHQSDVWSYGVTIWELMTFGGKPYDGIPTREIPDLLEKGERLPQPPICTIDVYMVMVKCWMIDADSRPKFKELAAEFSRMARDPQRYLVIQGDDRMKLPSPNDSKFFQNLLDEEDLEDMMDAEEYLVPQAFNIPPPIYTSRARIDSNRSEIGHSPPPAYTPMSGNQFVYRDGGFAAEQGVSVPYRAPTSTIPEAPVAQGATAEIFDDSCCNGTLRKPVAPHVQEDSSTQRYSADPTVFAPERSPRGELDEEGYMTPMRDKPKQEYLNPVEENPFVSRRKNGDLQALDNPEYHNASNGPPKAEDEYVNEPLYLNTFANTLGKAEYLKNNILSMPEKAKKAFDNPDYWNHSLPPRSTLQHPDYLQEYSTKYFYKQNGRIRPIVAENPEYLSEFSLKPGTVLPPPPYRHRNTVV", "test": "Selectivity interaction (KinomeScan (DiscoverX)) EUB0000618a ERBB4", "details": "at 10 µM"}, "[7]": {"target": "T3, Aurora kinase C (Homo sapiens) (UniProt Q9UQB9)", "T3 sequence (whole entry)": "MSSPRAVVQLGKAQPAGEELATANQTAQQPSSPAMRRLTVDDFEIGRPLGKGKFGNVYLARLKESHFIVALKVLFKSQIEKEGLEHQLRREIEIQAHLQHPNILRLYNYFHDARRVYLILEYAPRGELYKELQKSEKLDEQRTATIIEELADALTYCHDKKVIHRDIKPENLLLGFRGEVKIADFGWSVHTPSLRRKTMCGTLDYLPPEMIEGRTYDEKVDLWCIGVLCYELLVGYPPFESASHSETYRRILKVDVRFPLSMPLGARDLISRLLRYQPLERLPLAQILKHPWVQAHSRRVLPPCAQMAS", "test": "Selectivity interaction (Ambit KINOMEscan and KiNATiv profiling in Jurkat cells) EUB0000090b AURKC", "assay_type": "cell-based", "details": "at 1 µM"}},
  "data": [
    {"smiles": "COc1cc(N(C)c2ccnc3ccc(C(F)(F)F)cc23)cc(OC)c1OC", "values": [
      {"measurement": "% binding", "setting": "[1]", "result": 100, "unit": "%"}
    ]},
    {"smiles": "CCC(=O)N1CCN(c2ccc(-n3c(=O)ccc4cnc5ccc(-c6cnc7ccccc7c6)cc5c43)cc2C(F)(F)F)CC1", "values": [
      {"measurement": "% of control", "setting": "[2]", "result": 100, "unit": "%"}
    ]},
    {"smiles": "CCc1cc(Nc2nccc(-c3c(-c4ccc(OC)c(C(=O)Nc5c(F)cccc5F)c4)nc4ccccn34)n2)c(OC)cc1N1CCC(N2CCN(S(C)(=O)=O)CC2)CC1", "values": [
      {"measurement": "IC50", "setting": "[3]", "result": "> 11", "unit": "µM"}
    ]},
    {"smiles": "CC[C@@H]1[C@H](F)C(=O)N[C@@H]1COc1nccc2cc(C(N)=O)c(OC)cc12", "note": "[ZIMLOVISERTIB]", "values": [
      {"measurement": "% of inhibition", "setting": "[4]; at 0.01 µM", "result": 16.2, "unit": "%"},
      {"measurement": "% of inhibition", "setting": "[4]; at 0.04 µM", "result": 3.7, "unit": "%"},
      {"measurement": "% of inhibition", "setting": "[4]; at 0.2 µM", "result": -10, "unit": "%"},
      {"measurement": "% of inhibition", "setting": "[4]; at 1 µM", "result": 15.7, "unit": "%"},
      {"measurement": "% of inhibition", "setting": "[4]; at 5 µM", "result": 63.1, "unit": "%"}
    ]},
    {"smiles": "CNC(=O)Nc1ccc(-c2nc(N3CC4CCC(C3)O4)c3cnn(C4CCC5(CC4)OCCO5)c3n2)cc1", "values": [
      {"measurement": "% of inhibition", "setting": "[5]", "result": 1, "unit": "%"}
    ]},
    {"smiles": "O[C@H]1CC[C@H](Nc2ncc3nc(Nc4c(F)cc(F)cc4F)n([C@H]4CCOC4)c3n2)CC1", "values": [
      {"measurement": "% of control", "setting": "[6]", "result": 56, "unit": "%"}
    ]},
    {"smiles": "CN(C)C/C=C/C(=O)Nc1ccc(C(=O)N2CCCC(Nc3ncc(Cl)c(-c4c[nH]c5ccccc45)n3)C2)cc1", "note": "(stereo unspecified)", "values": [
      {"measurement": "% of control", "setting": "[7]", "result": 100, "unit": "%"}
    ]}
  ]
}
